Experimental data as given in article PMC6199744, “Development of Chemical Proteomics for the Folateome and Analysis of the Kinetoplastid Folateome” (ACS Infectious Diseases, 2018).
Like-named read-outs stand apart in the source and are kept apart here.

Tests used:
Assay type in all cases: binding
[1] = biological target: T1, HeLa cell extract proteins (Homo sapiens, UniProt O00299)
T1 construct: endogenous in cells; host or cells: HeLa cell extract

[2] = biological target: T2, HeLa cell extract proteins (Homo sapiens, UniProt O43747)
T2 construct: endogenous in cells; host or cells: HeLa cell extract
T2 sequence (O43747 1-822): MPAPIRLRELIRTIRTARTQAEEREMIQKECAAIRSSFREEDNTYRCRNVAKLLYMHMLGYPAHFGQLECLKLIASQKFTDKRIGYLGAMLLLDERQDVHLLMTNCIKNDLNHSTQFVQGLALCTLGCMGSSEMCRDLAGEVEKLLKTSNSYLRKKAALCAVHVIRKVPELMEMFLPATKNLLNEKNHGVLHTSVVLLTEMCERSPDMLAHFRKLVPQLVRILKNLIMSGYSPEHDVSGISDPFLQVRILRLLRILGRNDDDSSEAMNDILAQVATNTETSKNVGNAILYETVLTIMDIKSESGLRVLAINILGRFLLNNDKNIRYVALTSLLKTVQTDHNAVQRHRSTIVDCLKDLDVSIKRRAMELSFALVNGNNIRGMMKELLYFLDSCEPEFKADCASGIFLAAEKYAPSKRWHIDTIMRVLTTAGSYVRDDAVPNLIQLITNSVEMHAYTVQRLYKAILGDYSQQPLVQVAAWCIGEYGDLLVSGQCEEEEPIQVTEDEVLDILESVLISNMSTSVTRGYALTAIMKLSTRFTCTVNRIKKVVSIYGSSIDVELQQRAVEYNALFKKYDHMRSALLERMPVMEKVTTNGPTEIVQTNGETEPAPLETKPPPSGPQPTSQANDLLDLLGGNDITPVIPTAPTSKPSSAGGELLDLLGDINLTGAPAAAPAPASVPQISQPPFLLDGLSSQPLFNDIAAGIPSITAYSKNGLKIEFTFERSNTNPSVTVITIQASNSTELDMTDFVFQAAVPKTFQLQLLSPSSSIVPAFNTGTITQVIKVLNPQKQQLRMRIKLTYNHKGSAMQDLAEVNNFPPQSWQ

[3] = biological target: T3, HeLa cell extract proteins (Homo sapiens, UniProt P09496)
T3 construct: endogenous in cells; host or cells: HeLa cell extract
T3 sequence (P09496 1-248): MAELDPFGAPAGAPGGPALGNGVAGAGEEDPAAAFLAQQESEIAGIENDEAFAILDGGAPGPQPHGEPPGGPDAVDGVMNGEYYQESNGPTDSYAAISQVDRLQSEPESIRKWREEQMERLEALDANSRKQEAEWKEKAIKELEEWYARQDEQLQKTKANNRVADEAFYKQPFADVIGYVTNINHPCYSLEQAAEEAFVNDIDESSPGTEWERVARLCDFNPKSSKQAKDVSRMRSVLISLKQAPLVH

[4] = biological target: T4, HeLa cell extract proteins (Homo sapiens, UniProt P28070)
T4 construct: endogenous in cells; host or cells: HeLa cell extract
T4 sequence (P28070 46-264): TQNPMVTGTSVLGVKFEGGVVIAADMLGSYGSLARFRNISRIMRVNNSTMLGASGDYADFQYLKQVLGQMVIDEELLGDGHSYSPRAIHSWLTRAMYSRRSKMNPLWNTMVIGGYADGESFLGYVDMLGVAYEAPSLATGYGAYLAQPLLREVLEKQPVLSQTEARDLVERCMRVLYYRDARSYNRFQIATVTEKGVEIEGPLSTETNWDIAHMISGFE

[5] = biological target: T5, HeLa cell extract proteins (Homo sapiens, UniProt P37802)
T5 construct: endogenous in cells; host or cells: HeLa cell extract
T5 sequence (P37802 whole entry): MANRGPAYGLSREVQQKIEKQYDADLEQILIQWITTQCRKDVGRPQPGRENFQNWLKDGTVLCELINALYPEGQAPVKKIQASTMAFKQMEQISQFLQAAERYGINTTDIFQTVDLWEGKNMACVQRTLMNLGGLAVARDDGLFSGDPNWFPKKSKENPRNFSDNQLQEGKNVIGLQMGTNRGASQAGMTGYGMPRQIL

[6] = biological target: T6, HeLa cell extract proteins (Homo sapiens, UniProt P53618)
T6 construct: endogenous in cells; host or cells: HeLa cell extract
T6 sequence (P53618 1-953): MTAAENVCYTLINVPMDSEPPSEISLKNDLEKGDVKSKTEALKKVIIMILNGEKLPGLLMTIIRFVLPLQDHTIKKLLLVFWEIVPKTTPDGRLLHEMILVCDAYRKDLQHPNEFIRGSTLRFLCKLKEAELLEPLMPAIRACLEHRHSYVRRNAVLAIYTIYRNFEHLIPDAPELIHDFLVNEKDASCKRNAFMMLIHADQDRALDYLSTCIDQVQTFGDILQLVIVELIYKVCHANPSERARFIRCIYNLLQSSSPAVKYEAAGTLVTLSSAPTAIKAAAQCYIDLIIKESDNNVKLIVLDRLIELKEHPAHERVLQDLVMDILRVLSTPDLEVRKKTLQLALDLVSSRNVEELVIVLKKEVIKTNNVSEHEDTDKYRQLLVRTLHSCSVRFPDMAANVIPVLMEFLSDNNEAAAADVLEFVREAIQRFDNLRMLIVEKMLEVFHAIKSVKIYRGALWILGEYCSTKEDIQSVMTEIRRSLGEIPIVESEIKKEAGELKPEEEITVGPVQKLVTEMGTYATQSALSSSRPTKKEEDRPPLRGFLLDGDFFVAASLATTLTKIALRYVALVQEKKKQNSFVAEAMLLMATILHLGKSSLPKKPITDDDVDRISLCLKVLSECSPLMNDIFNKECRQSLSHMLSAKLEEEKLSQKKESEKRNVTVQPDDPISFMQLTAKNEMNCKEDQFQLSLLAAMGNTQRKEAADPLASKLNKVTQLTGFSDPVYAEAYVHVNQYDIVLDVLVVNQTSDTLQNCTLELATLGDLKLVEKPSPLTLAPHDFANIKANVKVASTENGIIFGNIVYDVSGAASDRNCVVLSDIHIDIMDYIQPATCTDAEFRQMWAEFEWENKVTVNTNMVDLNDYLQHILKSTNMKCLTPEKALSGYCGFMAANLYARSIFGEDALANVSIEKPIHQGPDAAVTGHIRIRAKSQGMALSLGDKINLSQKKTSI

[7] = biological target: T7, HeLa cell extract proteins (Homo sapiens, UniProt P61604)
T7 construct: endogenous in cells; host or cells: HeLa cell extract
T7 sequence (P61604 whole entry): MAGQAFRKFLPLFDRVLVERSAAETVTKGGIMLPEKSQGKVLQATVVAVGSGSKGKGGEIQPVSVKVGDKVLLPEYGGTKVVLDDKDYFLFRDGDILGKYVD

[8] = biological target: T8, HeLa cell extract proteins (Homo sapiens, UniProt Q92621)
T8 construct: endogenous in cells; host or cells: HeLa cell extract
T8 sequence (Q92621 whole entry): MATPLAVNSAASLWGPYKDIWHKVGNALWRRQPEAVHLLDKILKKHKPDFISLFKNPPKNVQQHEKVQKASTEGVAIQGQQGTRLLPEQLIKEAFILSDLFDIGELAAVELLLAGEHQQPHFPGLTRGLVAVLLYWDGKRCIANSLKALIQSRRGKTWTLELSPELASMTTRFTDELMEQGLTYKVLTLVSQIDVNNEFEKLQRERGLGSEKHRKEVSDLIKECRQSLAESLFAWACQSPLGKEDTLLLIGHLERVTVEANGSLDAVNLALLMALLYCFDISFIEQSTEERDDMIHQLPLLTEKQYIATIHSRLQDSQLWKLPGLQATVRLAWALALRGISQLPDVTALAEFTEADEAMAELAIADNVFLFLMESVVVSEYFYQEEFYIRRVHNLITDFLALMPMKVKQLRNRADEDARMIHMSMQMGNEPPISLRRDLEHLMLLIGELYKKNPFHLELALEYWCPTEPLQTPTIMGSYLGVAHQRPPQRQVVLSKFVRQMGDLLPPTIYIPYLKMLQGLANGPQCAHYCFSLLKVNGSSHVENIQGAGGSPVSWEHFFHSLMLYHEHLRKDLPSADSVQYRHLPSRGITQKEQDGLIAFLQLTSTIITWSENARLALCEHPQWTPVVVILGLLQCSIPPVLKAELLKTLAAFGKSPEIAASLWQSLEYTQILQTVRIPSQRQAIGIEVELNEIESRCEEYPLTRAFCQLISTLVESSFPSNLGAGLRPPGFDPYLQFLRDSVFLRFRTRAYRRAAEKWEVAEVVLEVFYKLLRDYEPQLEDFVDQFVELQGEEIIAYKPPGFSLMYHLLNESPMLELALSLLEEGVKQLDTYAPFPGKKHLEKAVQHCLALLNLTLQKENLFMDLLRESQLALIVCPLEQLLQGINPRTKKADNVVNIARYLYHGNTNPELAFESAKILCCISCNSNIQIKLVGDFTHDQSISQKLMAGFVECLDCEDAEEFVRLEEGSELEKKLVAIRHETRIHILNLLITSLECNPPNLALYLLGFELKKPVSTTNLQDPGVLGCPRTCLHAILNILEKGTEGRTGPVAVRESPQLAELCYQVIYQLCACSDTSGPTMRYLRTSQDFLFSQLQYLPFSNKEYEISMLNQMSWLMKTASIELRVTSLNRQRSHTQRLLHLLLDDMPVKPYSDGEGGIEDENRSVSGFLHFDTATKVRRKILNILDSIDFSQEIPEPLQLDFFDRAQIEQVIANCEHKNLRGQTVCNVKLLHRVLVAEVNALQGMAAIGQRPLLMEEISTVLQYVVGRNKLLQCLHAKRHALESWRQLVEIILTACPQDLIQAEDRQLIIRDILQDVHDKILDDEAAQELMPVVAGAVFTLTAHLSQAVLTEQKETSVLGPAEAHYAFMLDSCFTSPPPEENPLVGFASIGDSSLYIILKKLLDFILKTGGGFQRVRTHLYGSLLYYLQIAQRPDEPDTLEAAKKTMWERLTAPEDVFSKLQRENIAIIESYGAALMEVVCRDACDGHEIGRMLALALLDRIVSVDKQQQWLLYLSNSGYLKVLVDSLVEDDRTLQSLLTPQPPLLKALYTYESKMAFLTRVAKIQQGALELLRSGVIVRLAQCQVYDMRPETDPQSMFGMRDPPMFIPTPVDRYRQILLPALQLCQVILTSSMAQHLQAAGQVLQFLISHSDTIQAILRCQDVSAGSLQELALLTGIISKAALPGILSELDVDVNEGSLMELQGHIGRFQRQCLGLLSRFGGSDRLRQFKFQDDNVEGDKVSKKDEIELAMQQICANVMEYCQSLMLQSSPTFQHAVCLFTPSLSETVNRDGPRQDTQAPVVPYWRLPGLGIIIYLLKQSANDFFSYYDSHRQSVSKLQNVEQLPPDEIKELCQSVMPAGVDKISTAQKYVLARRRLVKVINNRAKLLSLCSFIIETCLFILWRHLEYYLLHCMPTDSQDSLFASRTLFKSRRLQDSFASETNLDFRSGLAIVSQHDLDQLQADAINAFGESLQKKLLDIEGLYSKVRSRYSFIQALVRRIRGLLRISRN

[9] = biological target: T9, HeLa cell extract proteins (Homo sapiens, UniProt Q99623)
T9 construct: endogenous in cells; host or cells: HeLa cell extract
T9 sequence (Q99623 whole entry): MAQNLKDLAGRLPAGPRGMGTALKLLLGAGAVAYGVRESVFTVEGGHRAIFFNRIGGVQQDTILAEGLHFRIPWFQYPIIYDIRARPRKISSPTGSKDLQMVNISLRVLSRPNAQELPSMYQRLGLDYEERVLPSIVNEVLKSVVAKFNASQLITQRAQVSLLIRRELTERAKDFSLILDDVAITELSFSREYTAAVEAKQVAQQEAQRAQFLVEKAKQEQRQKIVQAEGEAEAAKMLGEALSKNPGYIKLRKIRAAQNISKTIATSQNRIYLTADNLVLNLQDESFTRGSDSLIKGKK

Compound | fold changes relative to vehicle control ([1]; protein CLIC1, HeLa) | fold changes relative to vehicle control ([2]; protein AP1G1, HeLa) | fold changes relative to vehicle control ([3]; HeLa, protein CLTA) | fold changes relative to vehicle control ([4]; protein PSMB4, HeLa) | fold changes relative to vehicle control ([5]; protein TAGLN2, HeLa) | fold changes relative to vehicle control ([6]; HeLa, protein COPB1) | fold changes relative to vehicle control ([7]; protein HSPE1, HeLa) | fold changes relative to vehicle control ([8]; captured protein NUP205, HeLa) | fold changes relative to vehicle control ([9]; HeLa, protein PHB2) | fold changes relative to vehicle control ([1]; HeLa, protein CLIC1) | fold changes relative to vehicle control ([2]; HeLa, protein AP1G1) | fold changes relative to vehicle control ([3]; HeLa, captured protein CLTA) | fold changes relative to vehicle control ([4]; HeLa, protein PSMB4) | fold changes relative to vehicle control ([5]; HeLa, protein TAGLN2) | fold changes relative to vehicle control ([7]; HeLa, protein HSPE1) | fold changes relative to vehicle control ([8]; HeLa, captured protein NUP205) | fold changes relative to vehicle control ([9]; protein PHB2, HeLa) | other results
Nc1nc2cccc(-c3ccccc3)c2n1Cc1ccc(Cl)c(Cl)c1 [compound 3] | 0.87 | 0.97 | 1.09 | 1.05 | 0.85 | 1.17 | 0.85 | 1.18 | 1.04 | – | – | – | – | – | – | – | – | –
NCCOCCOCC(=O)Nc1nc2ncc(CNc3ccc(C(=O)NC(CCC(=O)O)C(=O)O)cc3)nc2c(=O)[nH]1 (stereo not drawn) [compound 6] | – | – | – | – | – | 0.92 | – | – | – | 1.44 | 1.17 | 1.48 | 1.04 | 1.2 | 1.69 | 1.16 | 0.95 | –
Nc1nc2[nH]cc(CCc3ccc(C(=O)N[C@@H](CCC(=O)O)C(=O)O)cc3)c2c(=O)[nH]1 [PTX, pemetrexed] | – | – | – | – | – | – | – | – | – | – | – | – | – | – | – | – | – | fold changes relative to vehicle control [1]: 1.26; fold changes relative to vehicle control [2]: 1.09; fold changes relative to vehicle control [3]: 1.55; fold changes relative to vehicle control [4]: 0.97; fold changes relative to vehicle control [5]: 1.18; fold changes relative to vehicle control [6]: 0.84; fold changes relative to vehicle control [7]: 1.42; fold changes relative to vehicle control [8]: 1.09; fold changes relative to vehicle control [9]: 0.86
Nc1nc2c(c(=O)[nH]1)N(C=O)C(CNc1ccc(C(=O)N[C@@H](CCC(=O)O)C(=O)O)cc1)CN2 (stereo partly drawn) [LEU, leucovorin] | – | – | – | – | – | 0.87 | – | – | – | 1.09 | 1.1 | 1.19 | 0.98 | 0.97 | 1.16 | 1.03 | 0.85 | –
CCCCCCOc1ccc(Cc2cnc(N)nc2N)cc1 [compound 1] | 1.21 | 1.19 | 0.68 | 1.12 | 1.17 | 0.97 | 1.38 | 1.03 | 0.95 | – | – | – | – | – | – | – | – | –
NCCCNc1ccc(C(=O)NC(CCC(=O)O)C(=O)O)cc1 (stereo not drawn) [compound 7] | – | – | – | – | – | 0.97 | – | – | – | 0.99 | 1.17 | 1.4 | 0.95 | 0.92 | 1.15 | 1.16 | 1 | –
CCCCCCOc1cccc(Cc2cnc(N)nc2N)c1 [compound 2] | 2.13 | 1.51 | 0.99 | 1.21 | 1.66 | 1.07 | 2.39 | 1.1 | 0.91 | – | – | – | – | – | – | – | – | –
